Results from patent US4932991A, “Thiopyridine-N-oxides, thiopyridines, and thiopyrimidines as urease inhibitors” (Tennessee Valley Authority, priority 1988, dated 1990).
“Also recorded” adds a separate entry of the source.

Tested on: soil urease
Experiment: Urea hydrolysis in bands of urea in soil (banded soil system urease inhibition test)
Type: biochemical
Conditions: for % inhibition, 3 days (as measured by percent urea unhydrolyzed) / % inhibition, 6 days (as measured by percent urea unhydrolyzed): Hastings silt loam soil, 25° C., inhibitor 41 mg/band with urea 410 mg/band (10% of urea wt/wt), two replicates; for % inhibition, 3 days (as measured by percent urea unhydrolyzed): 3 days incubation; for % inhibition, 6 days (as measured by percent urea unhydrolyzed): 6 days incubation; for urease inhibition effectiveness in soil (in words): banded soil system, three- and six-day tests, compared with PPDA
Protocol: Test compounds in Example I, infra, were evaluated in soil systems by an alternative procedure in which powdered mixtures of urea and test compounds were applied in narrow bands in the soil rather than being mixed throughout the soil. The banded configuration is not only applicable to banded applications but also results in concentration gradients of urea, urea hydrolysis products, test compounds, and test compound decomposition products similar to those in the immediate vicinity of urea granules containing test compounds. Another advantage of the banded configuration compared with mixing throughout the soil is that slightly soluble test compounds can be easily band applied, whereas it is difficult to achieve a known degree of mixing of a small quantity of slightly soluble test compound with soil. The banded configuration also enables testing for urease inhibition under realistic soil conditions prior to the development of techniques for cogranulating a wide range of test compounds with urea.
Specifics of the procedure for evaluating test compounds in Example I were as follows. Urease-active soil (Hastings silt loam) was moistened to a moisture content of 20% (dry weight basis) and preincubated at room temperature for two days. Plexiglass containers (6×6×6 cm) were one-half filled with soil and packed to a bulk density of 1.1 g/cm^3. Urea or urea plus inhibitor (thoroughly mixed) was distributed in a narrow band 6 cm long and about 0.5 cm wide on the soil surface. The containers then were filled with soil, again packing to a bulk density of 1.1 g/cm^3. The containers were incubated at 25° C. for the desired reaction period, after which the containers were frozen to about -5° C. to halt urea hydrolysis. Immediately prior to extracting the remaining urea from the soil, said soil was allowed to thaw. Soil from each container was thoroughly mixed, and a 10-g sample was extracted with 100 ml of 2M KCl containing phenylmercuric acetate to prevent urea hydrolysis during handling [L. A. Douglass, J. M. Bremner, Soil Sci. Soc. Am. Proc. 34, 859-862 (1970a)]. Urea in the extracts was determined with an automated version of the colorimetric procedure [L. A. Douglass, J. M. Bremner, Anal. Letters 3, 79-87 (1970b)].
Urease-active soil (Hastings silt loam) was moistened to a moisture content of 20% and preincubated at room temperature for two days. Plexiglass containers (6×6×6 cm) were one-half filled with soil and packed to a bulk density of 1.1 g/cm^3. Urea or urea plus inhibitor (thoroughly mixed) was distributed in a narrow band some 6 cm long and about 0.5 cm wide on the surface of the soil. The containers then were filled with soil and again packed to a bulk density of 1.1 g/cm^3. The containers were incubated at 25° C. for the desired reaction period.
The soil from each container was thoroughly mixed, and 10-g sample was extracted with 100 ml of 2M KCl containing 5 ppm phenylmercuric acetate to prevent urea hydrolysis during handling [L. A. Douglass, J. M. Bremner, Soil Sci. Soc. Am. Proc.34, 859-862 (1970); L. A. Douglass, J. M. Bremner, Anal. Letters 3, 79-87 (1970b)]. The urea in the extracts was determined colorimetrically as a measure of the unhydrolyzed urea.

Row | Compound | % inhibition, 3 days (as measured by percent urea unhydrolyzed) (Test Series I) | % inhibition, 6 days (as measured by percent urea unhydrolyzed) (Test Series I) | urease inhibition effectiveness in soil (in words) | % inhibition, 3 days (as measured by percent urea unhydrolyzed) (Test Series II) | % inhibition, 6 days (as measured by percent urea unhydrolyzed) (Test Series II)
1 | c1ccc(SSc2ccccn2)nc1 [AT, Aldrithiol] | 42.9% | 0.7% | possesses even the smallest urease activity |  | 
2 | c1ccc(-c2ccccn2)nc1 [DP, 2,2'-Dipyridyl] | 12.0% | 0.2% |  |  | 
3 | O=[N+]([O-])c1ccc(SSc2ccc([N+](=O)[O-])cn2)nc1 [DTNP, 2,2-Dithio-5-nitropyridine] | 8.6% | 0.5% |  |  | 
4 | [O-][n+]1ccccc1SSc1cccc[n+]1[O-] [DTPNO, 2,2-Dithiobis-pyridine-N-oxide] | 92.2% | 46.4% | as effective an inhibitor as PPDA; also recorded: excellent urease inhibition characteristics | 92.6% | 38.9%
5 | Sc1ccccn1 [MP, 2-Mercaptopyridine] |  |  | excellent urease inhibitors | 80.2% | 37.8%
6 | Sc1ncccn1 [MPM, 2-Mercaptopyrimidine] |  |  | excellent urease inhibitors | 72.8% | 44.6%
7 | [O-][n+]1ccccc1S [MPNO, 2-Mercaptopyridine-N-Oxide] |  |  | excellent urease inhibition characteristics | 76.8% | 32.2%
8 | Oc1cccnc1S [MPOL, 2-Mercapto-3-pyridinol] |  |  | significantly lower inhibition | 40.1% | 0%
9 | [O-][n+]1ccccc1 [PNO, Pyridine-N-Oxide] |  |  | significantly lower inhibition | 11.3% | 0%
10 | NP(N)(=O)Oc1ccccc1 [PPDA, Phenyl phosphorodiamidate] | 95.6% | 59.6% |  | 92.1% | 54.2%
